Each structure is given as a SMILES string.

In general, IC50 refers to the concentration that gives 50% inhibition. Higher therefore signals weaker potency in that assay.

The target of the assay is T1, human SSTR5 (Homo sapiens, UniProt P35346).
T1 construct: expressed in transfected cells
T1 sequence (P35346 whole entry): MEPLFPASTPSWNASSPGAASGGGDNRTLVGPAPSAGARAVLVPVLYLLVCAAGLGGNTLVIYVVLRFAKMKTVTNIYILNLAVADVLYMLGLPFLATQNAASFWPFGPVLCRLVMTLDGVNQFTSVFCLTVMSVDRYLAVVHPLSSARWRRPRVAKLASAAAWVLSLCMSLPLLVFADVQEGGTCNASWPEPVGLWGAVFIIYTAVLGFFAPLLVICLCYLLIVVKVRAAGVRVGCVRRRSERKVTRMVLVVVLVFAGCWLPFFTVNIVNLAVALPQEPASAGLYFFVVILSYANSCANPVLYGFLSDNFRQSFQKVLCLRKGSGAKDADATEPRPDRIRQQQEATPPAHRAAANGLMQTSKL
The assay is described as follows: Inositol phosphate accumulation assay (IP1 HTRF, antagonist mode). It is filed as cell-based. As to conditions: CHO-K1 cells co-expressing human SSTR5 with Gqi5, SST28 agonist at concentration generating 90% of full activation. From the text: CHO-K1 cells stably co-expressing human SSTR5 with Gqi5 were developed using Jump-In technology from Thermo-Fisher. Gqi5 is the mouse G alpha q protein, that was modified to interact with Gi-coupled GPCRs as described previously (Coward, P.; Chan, S. D.; Wada, H. G.; Humphries, G. M.; Conklin, B. R. Chimeric G proteins Allow a High-Throughput Signaling Assay of Gi-Coupled Receptors. Anal Biochem. 1999, 270(2),242-248).
Co-expression of Gqi5 with SSTR5 allowed monitoring of SSTR5 activity by following IP1 accumulation. The assay was performed in a 384-well plate format using the IP1 assay kit from Cis-Bio in an antagonist mode, i.e., pre-incubation with antagonist following by receptor activation by agonist at a concentration generating 90% of full activation. Frozen cells expressing human SSTR5 were thawed, washed, and then plated in DMEM supplemented with 10% FBS and non-essential amino acids. 40 μL of 2.5×10^5 cells/mL were plated on a Poly D-Lysine coated 384-well white plate. The cells were then incubated for 16 hr. at 37° C/5% CO2. After 16 hour the medium was removed, and 10 μL of stimulation buffer was added to the cells. Test compounds were dissolved in DMSO at concentrations 2000-fold that of the final assay concentrations. 7.5 nLcompound solutions were transferred to the cell plates using a Labcyte Echo® acoustic liquid handler. The plates were then incubated for 15 minutes at 37° C/5%CO2. After the first incubation, 5 μL of 30 nM SST28 were added to the cells, and the cells were incubated for 90 minutes at 37° C/5%CO2. 5 μL of detection buffer (prepared as described in the IP-1 kit) was added to each well, and the plates were incubated at RT for 1 hour.
TR-FRET was measured using a ClarioSTAR plate reader, calculating the ratio between emissions at 665 nm and 620 nm (HTRF ratio). The HTRF ratio for positive (Max) and negative (Min) controls were used to normalize HTRF data and generate values for % inhibition. IC50 and maximal inhibition values were determined using a standard 4-parameter fit.
(In TR-FRET formats the signal depends on donor and acceptor labels being close together.)
With `CCOc1cc(C(=O)OC)c(C2CC2)cc1CN1CCN(C(=O)Oc2ccc(C(=O)N3CC(CNC[C@H](O)[C@@H](O)[C@H](O)[C@H](O)CO)C3)cc2)CC1` [Example 99, 4-(3-((((2S,3R,4R,5R)-2,3,4,5,6-pentahydroxyhexyl)amino)methyl)azetidine-1-carbonyl)phenyl 4-(5-cyclopropyl-2-ethoxy-4-(methoxycarbonyl)benzyl)piperazine-1-carboxylate], the IC50 lay within 100 to 1000 nM.

`CCOc1cc(C(=O)OC)c(C2CC2)cc1CN1CCC2(CC1)CC(=O)N(c1ccc(C(=O)NCCCNC(N)=O)cc1)C2` [Example 39, methyl 2-cyclopropyl-5-ethoxy-4-((3-oxo-2-(4-((3-ureidopropyl)carbamoyl)phenyl)-2,8-diazaspiro[4.5]decan-8-yl)methyl)benzoate] showed an IC50 of 100 to 1000 nM.

On to `CCOc1cc(C(=O)OC)c(C2CC2)cc1CN1CCN(C(=O)Oc2cccc(C(=O)NC[C@H](O)[C@@H](O)[C@H](O)[C@H](O)CO)c2)CC1` [Example 98], for which the IC50 was in the range of 100 to 1000 nM.

Take `CCOc1cc(-c2ccc(F)cc2)c(C2CC2)cc1CN1CCC2(CC1)CN(c1ccc(C(=O)NC[C@H](O)[C@@H](O)[C@H](O)[C@H](O)CO)cc1)C(=O)O2` [Example 60, 4-(8-((2-cyclopropyl-5-ethoxy-4′-fluoro-[1,1′-biphenyl]-4-yl)methyl)-2-oxo-1-oxa-3,8-diazaspiro[4.5]decan-3-yl)-N-((2S,3R,4R,5R)-2,3,4,5,6-pentahydroxyhexyl)benzamide]: the IC50 is at most 100 nM.

`CCOc1cc(C(=O)OC)c(C2CC2)cc1CN1CCC2(CC1)CC(=O)N(c1ccc(C(=O)NCCOCC[N+]34CCN(CC3)CC4)cc1)C2` [Example 45, 1-(2-(2-(4-(8-(5-cyclopropyl-2-ethoxy-4-(methoxycarbonyl)benzyl)-3-oxo-2,8-diazaspiro[4.5]decan-2-yl)benzamido)ethoxy)ethyl)-1,4-diazabicyclo[2.2.2]octan-1-ium] showed an IC50 of over 5000 nM.

Turning to `CCOc1cc(C(=O)OCc2oc(=O)oc2C)c(C2CC2)cc1CN1CCC2(CC1)CC(=O)N(c1ccc(C(=O)NC[C@H](O)[C@@H](O)[C@H](O)[C@H](O)CO)cc1)C2` [compound 24], the IC50 was over 5000 nM.

Compound `CCOc1cc(-c2ccc(F)cn2)c(C2CC2)cc1CN1CCC2(CC1)CN(c1ccc(C(=O)NCCOCCO)cc1)C(=O)N2` [Example 74, 4-(8-(5-cyclopropyl-2-ethoxy-4-(5-fluoropyridin-2-yl)benzyl)-2-oxo-1,3,8-triazaspiro[4.5]decan-3-yl)-N-(2-(2-hydroxyethoxy)ethyl)benzamide] had an IC50 of at most 100 nM.

`CCOc1cc(C(=O)OC)c(C2CC2)cc1CN1CCC2(CC1)CN(c1ccc(C(=O)NCCCS(N)(=O)=O)cc1)C(=O)O2` [Example 59, methyl 2-cyclopropyl-5-ethoxy-4-((2-oxo-3-(4-((3-sulfamoylpropyl)carbamoyl)phenyl)-1-oxa-3,8-diazaspiro[4.5]decan-8-yl)methyl)benzoate] had a concentration for half-maximal inhibition (IC50) of at most 100 nM.

As to `CCOc1cc(-c2ccc(F)cn2)c(C2CC2)cc1CN1CCC2(CC1)CN([C@H]1CC[C@](C)(C(=O)NCCCS(=O)(=O)O)CC1)C(=O)O2` [compound 91], the IC50 was at most 100 nM.

Take `CCOc1cc(C(=O)OC)c(C2CC2)cc1CN1CCC2(CC1)CC(=O)N(c1ccc(C(=O)NCCO)cc1)C2` [Example 20, methyl 2-cyclopropyl-5-ethoxy-4-((2-(4-((2-hydroxyethyl)carbamoyl)phenyl)-3-oxo-2,8-diazaspiro[4.5]decan-8-yl)methyl)benzoate]: the half-maximal inhibitory concentration (IC50) was at most 100 nM.

As for `CCOc1cc(CN2CCC3(CC2)CN(c2ccc(C(=O)NCCNC(=O)NC(CO)(CO)CO)cc2)C(=O)O3)cc(OCC)c1-c1ccc(F)cc1` [Example 7, 4-(8-((2,6-diethoxy-4′-fluoro-[1,1′-biphenyl]-4-yl)methyl)-2-oxo-1-oxa-3,8-diazaspiro[4.5]decan-3-yl)-N-(2-(3-(1,3-dihydroxy-2-(hydroxymethyl)propan-2-yl)ureido)ethyl)benzamide], the IC50 was at most 100 nM.

In turn, `CCOc1cc(-c2ccc(F)cc2)c(C2CC2)cc1CN1CCC2(CC1)CN(c1ccc(C(=O)NCCOCCOCCO)cc1)C(=O)N2` [Example 70, 4-(8-((2-cyclopropyl-5-ethoxy-4′-fluoro-[1,1′-biphenyl]-4-yl)methyl)-2-oxo-1,3,8-triazaspiro[4.5]decan-3-yl)-N-(2-(2-(2-hydroxyethoxy)ethoxy)ethyl)benzamide] gave an IC50 of at most 100 nM.

`CCOc1cc(C(=O)OC)c(C2CC2)cc1CN1CCC2(CC1)CC(=O)N(c1ccc(C(=O)NCCCCP(=O)(O)O)cc1)C2` [Example 47, (4-(4-(8-(5-cyclopropyl-2-ethoxy-4-(methoxycarbonyl)benzyl)-3-oxo-2,8-diazaspiro[4.5]decan-2-yl)benzamido)butyl)phosphonic acid] yielded an IC50 of 100 to 1000 nM.

`CCOc1cc(C(=O)OC)c(C2CC2)cc1CN1CCC2(CC1)CC(=O)N(c1ccc(C(=O)NCCCCS(N)(=O)=O)cc1)C2` [Example 51, methyl 2-cyclopropyl-5-ethoxy-4-((3-oxo-2-(4-((4-sulfamoylbutyl)carbamoyl)phenyl)-2,8-diazaspiro[4.5]decan-8-yl)methyl)benzoate]: the IC50 fell in the range of 100 to 1000 nM.

`CCOc1cc(C(=O)OC)c(C2CC2)cc1CN1CCC2(CC1)CC(=O)N(c1ccc(C(=O)NCCNC(=O)NC(CO)CO)cc1)C2` [Example 16, methyl 2-cyclopropyl-4-((2-(4-((2-(3-(1,3-dihydroxypropan-2-yl)ureido)ethyl)carbamoyl)phenyl)-3-oxo-2,8-diazaspiro[4.5]decan-8-yl)methyl)-5-ethoxybenzoate] showed an IC50 of over 5000 nM.

`CCOc1cc(-c2ccc(F)cc2)c(C2CC2)cc1CN1CCC2(CC1)CN(c1ccc(C(=O)NCCCS(=O)(=O)O)cc1)C(=O)O2` [Example 63, 3-(4-(8-((2-cyclopropyl-5-ethoxy-4′-fluoro-[1,1′-biphenyl]-4-yl)methyl)-2-oxo-1-oxa-3,8-diazaspiro[4.5]decan-3-yl)benzamido)propane-1-sulfonic acid] registered a half-maximal inhibitory concentration (IC50) of at most 100 nM.

For `CCOc1cc(CN2CCC3(CC2)CN(c2ccc(C(=O)NC[C@H](O)[C@@H](O)[C@H](O)[C@H](O)COC(=O)CCC(=O)O)cc2)C(=O)O3)cc(OCC)c1-c1ccc(F)cc1` [Example 2, 4-(((2R,3R,4R,5S)-6-(4-(8-((2,6-diethoxy-4′-fluoro-[1,1′-biphenyl]-4-yl)methyl)-2-oxo-1-oxa-3,8-diazaspiro[4.5]decan-3-yl)benzamido)-2,3,4,5-tetrahydroxyhexyl)oxy)-4-oxobutanoic acid], the IC50 lay within 100 to 1000 nM.

For `CCOc1cc(-c2ccc(F)cc2)c(C2CC2)cc1CN1CCC2(CC1)CN(c1ccc(C(=O)NCCOC(CO)CO)cc1)C(=O)N2` [Example 73, 4-(8-((2-cyclopropyl-5-ethoxy-4′-fluoro-[1,1′-biphenyl]-4-yl)methyl)-2-oxo-1,3,8-triazaspiro[4.5]decan-3-yl)-N-(2-((1,3-dihydroxypropan-2-yl)oxy)ethyl)benzamide], the IC50 was at most 100 nM.

In turn, `CCOc1cc(C(=O)OC)c(C2CC2)cc1CN1CCC2(CC1)CC(=O)N(c1ccc(C(=O)NCCCNC(=N)N)cc1)C2` [Example 55, methyl 2-cyclopropyl-5-ethoxy-4-((2-(4-((3-guanidinopropyl)carbamoyl)phenyl)-3-oxo-2,8-diazaspiro [4.5]decan-8-yl)methyl)benzoate] yielded an IC50 of 100 to 1000 nM.

Consider `CCOc1cc(-c2ccc(F)cc2)c(C2CC2)cc1CN1CCC2(CC1)CN(c1ccc(S(=O)(=O)NCCOCCOCCO)cc1)C(=O)O2` [Example 83, 4-(8-((2-cyclopropyl-5-ethoxy-4′-fluoro-[1,1′-biphenyl]-4-yl)methyl)-2-oxo-1-oxa-3,8-diazaspiro[4.5]decan-3-yl)-N-(2-(2-(2-hydroxyethoxy)ethoxy)ethyl)benzenesulfonamide], for which the IC50 is at most 100 nM.

For the compound `CCOc1cc(C(=O)OC)c(C2CC2)cc1CN1CCN(C(=O)Cc2ccc(C(=O)NC[C@H](O)[C@@H](O)[C@H](O)[C@H](O)CO)cc2)CC1` [Example 97, methyl 2-cyclopropyl-5-ethoxy-4-((4-(2-(4-(((2S,3R,4R,5R)-2,3,4,5,6-pentahydroxyhexyl)carbamoyl)phenyl)acetyl)piperazin-1-yl)methyl)benzoate], the IC50 is over 5000 nM.

Consider `CCOc1cc(-c2ccc(F)cc2)c(C2CC2)cc1CN1CCC2(CC1)CN(c1ccc(S(=O)(=O)NCCCNC(=N)N)cc1)C(=O)O2` [compound 80, 4-(8-((2-cyclopropyl-5-ethoxy-4′-fluoro-[1,1′-biphenyl]-4-yl)methyl)-2-oxo-1-oxa-3,8-diazaspiro [4.5]decan-3-yl)-N-(3-guanidinopropyl)benzenesulfonamide], for which the IC50 is at most 100 nM.

The compound `CCOc1cc(C(=O)OC)c(C2CC2)cc1CN1CCN(C(=O)Oc2ccc(C(=O)NC[C@H](O)[C@@H](O)[C@H](O)[C@H](O)CO)cc2)CC1` [Example 96] came in with an IC50 of 100 to 1000 nM.

These data come from patent US20230113609A1, “SSTR5 ANTAGONISTS” (Kallyope, Inc., priority 2019, published 2023).
